Values joined by “and” are separate entries in the source; they are usually repeats but may differ in a detail not shown here. Identical values can stand only once.

The test system of one test is APP/PS1 mice. Put plainly: COX2 mRNA and protein in microglia of mice treated with N-AS or aspirin (Supplementary Fig 7p,q). The following applies: for COX2 mRNA in microglia: APP/PS1 mice treated, sFig 7p. It counts as in vivo, mouse. The text has this:
Adult neurons and microglia were isolated from the mice brain as previously described. In brief, the cortex of WT (1, 3, 5, or 9-months-old), APP/PS1 (1, 3, 5, or 9-months-old), APP/PS1 treated with N-AS (9-months-old) or APP/PS1 treated with aspirin (9-months-old) mice were minced in Hibernate A (Gibco)/B27 (Invitrogen) medium and dissociated using papain (Worthington) solution. After tissue trituration, cells were separated by Optiprep (Sigma-Aldrich) density gradient centrifugation.
Samples were lysed in RIPA buffer (Cell signaling Technologies), then subjected to SDS-PAGE and transferred to a nitrocellulose membrane. Membranes were blocked with 5% milk, incubated with primary antibody and then incubated with the appropriate horseradish peroxidase-conjugated secondary antibody. […] We performed densitometric quantification using the ImageJ software (National Institutes of Health). Images have been cropped for presentation.
Transgenic mouse lines over-expressing the hAPP695swe (APP) and presenilin-1M146V (PS1) mutations were originated from GlaxoSmithKline (Harlow, UK)[32] and maintained as described previously. […] Because APP/PS1 and 5xFAD mice show sex differences in disease progression, we used only male mice. […] Block randomization method was used to allocate the animals to experimental groups. To eliminate the bias, we were blinded in experimental progress such as data collection and data analysis. […] All protocols were approved by the Kyungpook National University Institutional Animal Care and Use Committee.
For total RNA extraction from the microglia derived from WT, APP/PS1, APP/PS1 mice treated with N-AS, and APP/PS1 mice treated with aspirin, the cells were isolated from the cortex of WT, APP/PS1, APP/PS1 mice treated with N-AS, or aspirin using the methods described above. […] Quantitative real-time PCR was performed using a Corbett research RG-6000 real-time PCR instrument. Primers are described in Supplementary Table 5.

The next test deals with T1, COX2 (Homo sapiens, UniProt P35354).
T1 sequence (P35354 18-604): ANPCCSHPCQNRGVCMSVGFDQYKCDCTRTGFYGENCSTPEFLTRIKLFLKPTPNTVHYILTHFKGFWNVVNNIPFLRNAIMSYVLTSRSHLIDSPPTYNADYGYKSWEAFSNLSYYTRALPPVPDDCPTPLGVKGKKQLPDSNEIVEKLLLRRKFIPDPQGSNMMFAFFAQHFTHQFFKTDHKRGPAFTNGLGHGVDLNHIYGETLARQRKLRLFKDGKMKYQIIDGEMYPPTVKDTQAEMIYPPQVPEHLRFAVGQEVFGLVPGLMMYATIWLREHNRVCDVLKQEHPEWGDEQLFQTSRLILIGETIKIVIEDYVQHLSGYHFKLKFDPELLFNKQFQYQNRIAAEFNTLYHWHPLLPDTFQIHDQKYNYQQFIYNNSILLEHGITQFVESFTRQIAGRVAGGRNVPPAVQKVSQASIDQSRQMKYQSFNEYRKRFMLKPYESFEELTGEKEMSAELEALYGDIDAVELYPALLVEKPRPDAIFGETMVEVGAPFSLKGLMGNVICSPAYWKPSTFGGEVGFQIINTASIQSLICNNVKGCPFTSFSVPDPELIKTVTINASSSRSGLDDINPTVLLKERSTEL
Description: lipid mediator and SPM biosynthesis by recombinant COX2 with 5-LOX (LC-MS/MS). It counts as biochemical. Set-up: purchased Cayman 60122. The following applies: for 11-HETE, Product (%) / 15-HETE, Product (%) / 15R-LXA4, Product (%) / PGH2, Product (%): AA; for 11-HETE, Product (%) / 15-HETE, Product (%) / 15R-LXA4, Product (%) / PGH2, Product (%) / 13-HDHA, Product (%) / 17-HDHA, Product (%) / RvD1, Product (%) / 11-HEPE, Product (%) / 15-HEPE, Product (%) / 18-HEPE, Product (%) / RvE1, Product (%): acetylated huCOX2, mean±s.e.m., n=6; for 15R-LxA4 quantification (Fig 2c) / RvD1 quantification (Fig 2c) / RvE1 quantification (Fig 2c): Control COX2 + 5-LOX, replicates; for 13-HDHA, Product (%) / 17-HDHA, Product (%) / RvD1, Product (%): DHA; for 11-HEPE, Product (%) / 15-HEPE, Product (%) / 18-HEPE, Product (%) / RvE1, Product (%): EPA. The procedure:
Lipid mediators metabololipidomics were performed according to previously described procedures with minor modifications[4],[30]. To confirm the biosynthesis of lipid mediators by recombinant COX2 treated with N-AS or aspirin, 10 U of human recombinant COX2 (Cayman, 60122) was incubated in the presence of 500 μM aspirin (Sigma-Aldrich, A5376) or N-AS (Sigma-Aldrich, 01912) at 37 °C for 30 min. The enzyme was filtered with a Microcon column (Millipore) to remove unreacted aspirin or N-AS and was then resuspended in 0.1 M Tris-HCl (pH 8.0). Next, 500 μM phenol (Sigma-Aldrich) and 1 μM hematin-porcine (Sigma-Aldrich) were added immediately before incubation with 100 μM AA, EPA or DHA (Cayman) at 37 °C for 2 h, respectively. The mixtures were incubated with 30 U of human 5-LOX (Cayman, 60402) containing 2 mM CaCl2 (Sigma-Aldrich), 1 mM ATP (Amresco) and 5 μM 13-HpODE (Cayman) as activators. Also, to validate the importance of residue S565 for N-AS-acetylation of COX2 and production of SPMs, 10 U of the COX2 S565A mutant was used in the above-described method. In addition, to confirm SPM generation in neurons and microglia, these cells were treated with Aβ and sonicated in neuronal and glial culture medium. […] To evaluate the relationship of N-AS and SPM production in microglia, microglia were isolated from WT, APP/PS1, and APP/PS1 treated with N-AS mice at 9 months of age. The microglia were sonicated and resuspended in microglial culture medium. The supernatants were incubated with 100 μM AA, EPA, and DHA (Cayman) at 37 °C for 2 h. A 50 μl aliquot of the mixture from each cell lysate was added to a 250 μl aliquot of 1 ng ml^−1 of 15S-LXA4-d5 (internal standard, Cayman) methanol solution. After vortexing for 10 min and centrifuging at 15,974×g for 5 min, the supernatant was subjected to the analysis of the lipid mediators using an Agilent 6470 Triple Quad LC-MS/MS system (Agilent) coupled to an Agilent 1290 HPLC system. Chromatographic separation was achieved using a Synergi Polar RP (4 μm, 2.0 mm i.d. × 150 mm, Phenomenex). Analytes were eluted with a mobile phase consisting of water: formic acid (100:0.1 v/v) (phase A) and methanol: formic acid (100:0.1 v/v) (phase B) in gradient elution mode for 23 min a flow rate of 0.2 ml min^−1. The elution gradient was as follows: from 0 to 0.1 min the content of phase A was 37% and the content of phase A was decreased to 10% and maintained for 5.5 min. The content of phase A was increased back to 37% at 6.0 min and maintained for 23 min. Quantification was carried out using MRM in negative ionization mode and collision energy of 10–15 eV. The mass transition from Q1 to Q3 is shown in Supplementary Table 2. In this study, the peak areas for all components were automatically integrated using MassHunter B 06.00.

Consider `CC(=O)Oc1ccccc1C(=O)O` [Aspirin, acetylsalicylic acid, reference compound], for which, in the test with APP/PS1 mice, the “COX2 mRNA in microglia” value was 0.57 and 0.65 and 0.68 and 0.49 and 0.61. Besides, at COX2, the “11-HETE, Product (%)” value is on record as 13.8±0.41%; the “15-HETE, Product (%)” value came to 9.5±0.22%; the “15R-LXA4, Product (%)” value came out at 4.2±0.18%; the “PGH2, Product (%)” value is recorded as 72.3±0.68%. At COX2, the “15R-LxA4 quantification (Fig 2c)” value was 8734.32 and 9047.96 and 8672.38 and 8679.89 and 12017 and 8786.05 and 9112.59; the “RvD1 quantification (Fig 2c)” value was 529.99 and 519.44 and 632.8 and 532.11 and 521.52; the “RvE1 quantification (Fig 2c)” value was 3237.03 and 3196.43 and 4589.07 and 4937.89 and 3246.64 and 3210.17; the “13-HDHA, Product (%)” value came out at 5.0±0.15%. Besides, on COX2, the “17-HDHA, Product (%)” value was 94.6±0.22%; the “RvD1, Product (%)” value is given as 0.4±0.01%; the “11-HEPE, Product (%)” value turned out to be 27.3±1.40%; the “15-HEPE, Product (%)” value was found to be 5.8±0.06%. On COX2, the “18-HEPE, Product (%)” value worked out at 61.3±0.32% and the “RvE1, Product (%)” value was found to be 3.1±0.25%.

`CCCCCCCCCCCCC/C=C/[C@@H](O)[C@H](CO)NC(C)=O` [N-AS, N-((2S,3R,E)-1,3-Dihydroxyoctadec-4-en-2-yl)acetamide]: in the test on APP/PS1 mice, the “COX2 mRNA in microglia” value was 0.91 and 0.92 and 1.07 and 1.22 and 1. For the same compound, the “mRNA and protein levels of COX2” value with APP/PS1 mice (N-AS-treated vs APP/PS1) was “did not vary”. Further, on COX2, the “11-HETE, Product (%)” value turned out to be 13.1±0.55%; the “15-HETE, Product (%)” value stood at 13.3±0.59%; the “15R-LXA4, Product (%)” value worked out at 4.8±0.23%; the “PGH2, Product (%)” value turned out to be 69.7±1.08%. For the same compound, on COX2, the “15R-LxA4 quantification (Fig 2c)” value was 10460.6 and 9709.13 and 8768.93 and 9235.99 and 8577.96 and 10535.3; the “RvD1 quantification (Fig 2c)” value was 670.43 and 829.94 and 668.56 and 744.28 and 781.34 and 739.49 and 733.66; the “RvE1 quantification (Fig 2c)” value was 4023.99 and 3322.2 and 4006.77 and 4517.41 and 3768.91 and 4998.35 and 3336.48; the “13-HDHA, Product (%)” value amounted to 3.6±0.09%. Besides, at COX2, the “17-HDHA, Product (%)” value was 95.8±0.19%; the “RvD1, Product (%)” value stood at 0.53±0.09%; the “11-HEPE, Product (%)” value amounted to 26.8±0.41%; the “15-HEPE, Product (%)” value was 5.8±0.09%. At COX2, the “18-HEPE, Product (%)” value is given as 64.0±0.25% and the “RvE1, Product (%)” value came to 3.3±0.09%.

These data come from publication PMC7217877, “N-AS-triggered SPMs are direct regulators of microglia in a model of Alzheimer’s disease” (Nature Communications, 2020).
